Source: article PMC4979471 (Cell Death Discovery, 2015)
Read-outs that look alike come from different tables or passages of the source.

Columns and labels:
Assay in all cases: Kinase selectivity, P33-radiolabeled assay
Format in all cases: biochemical
Conditions in all cases: 10 μM ATP
[1] = molecular target: T1, ZIPK/DAPK3 (Homo sapiens, UniProt O43293)
T1 construct: purchased Reaction Biology Corp
Description: (§1) The compound was tested at a single dose in duplicate at 10 μM. Reactions were carried out at 10 μM ATP. Data are reported as % enzyme activity (relative to DMSO controls). The full data set is shown in the Supplementary Table I.

[2] = molecular target: T2, HIPK3 (Homo sapiens, UniProt Q9H422)
T2 construct: purchased Reaction Biology Corp
Description: as §1

[3] = molecular target: T3, TSSK3/STK22C (Homo sapiens, UniProt Q96PN8)
T3 construct: purchased Reaction Biology Corp
T3 sequence (Q96PN8 1-268): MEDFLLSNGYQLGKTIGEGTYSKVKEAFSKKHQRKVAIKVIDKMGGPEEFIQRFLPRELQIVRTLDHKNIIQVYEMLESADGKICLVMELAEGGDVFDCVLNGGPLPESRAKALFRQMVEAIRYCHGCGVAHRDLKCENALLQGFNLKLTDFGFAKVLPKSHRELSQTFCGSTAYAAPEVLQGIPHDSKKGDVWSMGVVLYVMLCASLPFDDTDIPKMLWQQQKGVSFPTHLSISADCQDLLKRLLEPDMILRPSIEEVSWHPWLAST
Description: as §1

[4] = molecular target: T4, CAMK1g (Homo sapiens, UniProt Q96NX5)
T4 construct: purchased Reaction Biology Corp
Description: as §1

[5] = molecular target: T5, JAK2 (Homo sapiens, UniProt O60674)
T5 construct: purchased Reaction Biology Corp
Description: as §1

[6] = molecular target: T6, CTK/MATK (Homo sapiens, UniProt P42679)
T6 construct: purchased Reaction Biology Corp
T6 sequence (P42679 1-507): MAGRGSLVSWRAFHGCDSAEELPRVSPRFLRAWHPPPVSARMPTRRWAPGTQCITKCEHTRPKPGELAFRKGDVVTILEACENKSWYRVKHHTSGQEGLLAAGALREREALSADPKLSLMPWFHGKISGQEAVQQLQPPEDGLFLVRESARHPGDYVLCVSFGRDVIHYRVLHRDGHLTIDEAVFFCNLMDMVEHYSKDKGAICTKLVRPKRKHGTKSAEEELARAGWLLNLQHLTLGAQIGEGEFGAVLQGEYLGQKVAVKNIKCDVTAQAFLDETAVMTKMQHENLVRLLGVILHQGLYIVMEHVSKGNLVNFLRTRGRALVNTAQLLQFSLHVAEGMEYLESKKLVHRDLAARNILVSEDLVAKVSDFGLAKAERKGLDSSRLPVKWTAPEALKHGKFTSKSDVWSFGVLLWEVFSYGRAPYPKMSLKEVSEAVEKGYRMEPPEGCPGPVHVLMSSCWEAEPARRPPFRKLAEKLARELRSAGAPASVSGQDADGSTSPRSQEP
Description: as §1

[7] = molecular target: T7, PKG2/PRKG2 (Homo sapiens, UniProt Q13237)
T7 construct: purchased Reaction Biology Corp
T7 sequence (Q13237 1-762): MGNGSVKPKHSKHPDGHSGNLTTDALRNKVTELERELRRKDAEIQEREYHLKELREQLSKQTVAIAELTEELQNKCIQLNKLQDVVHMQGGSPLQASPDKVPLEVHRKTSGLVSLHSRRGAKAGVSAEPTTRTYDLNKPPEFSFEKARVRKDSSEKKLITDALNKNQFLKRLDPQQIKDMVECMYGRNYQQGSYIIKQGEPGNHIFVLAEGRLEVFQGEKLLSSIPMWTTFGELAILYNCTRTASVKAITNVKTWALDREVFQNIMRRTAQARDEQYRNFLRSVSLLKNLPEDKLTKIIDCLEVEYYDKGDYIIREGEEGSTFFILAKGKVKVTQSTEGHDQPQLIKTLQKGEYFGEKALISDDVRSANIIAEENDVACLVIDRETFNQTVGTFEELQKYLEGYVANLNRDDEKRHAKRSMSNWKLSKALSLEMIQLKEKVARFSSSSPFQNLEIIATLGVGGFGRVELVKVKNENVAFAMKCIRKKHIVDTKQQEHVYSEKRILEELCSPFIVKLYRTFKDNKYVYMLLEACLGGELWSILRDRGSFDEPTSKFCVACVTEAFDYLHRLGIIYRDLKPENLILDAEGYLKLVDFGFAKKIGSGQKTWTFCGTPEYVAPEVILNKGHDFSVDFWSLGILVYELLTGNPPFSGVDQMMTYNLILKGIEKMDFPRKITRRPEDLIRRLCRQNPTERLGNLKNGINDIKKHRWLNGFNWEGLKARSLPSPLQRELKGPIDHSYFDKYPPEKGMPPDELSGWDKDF
Description: as §1

[8] = molecular target: T8, BRK (Homo sapiens, UniProt Q13882)
T8 construct: purchased Reaction Biology Corp
Description: as §1

[9] = molecular target: T9, STK38/NDR1 (Homo sapiens, UniProt Q15208)
T9 construct: purchased Reaction Biology Corp
Description: as §1

[10] = read-out: % Enzyme Activity (relative to DMSO controls) AVG
[11] = read-out: % Enzyme Activity (relative to DMSO controls) Data 1
[12] = read-out: % Enzyme Activity (relative to DMSO controls) Data 2

T4 sequence (Q96NX5 whole entry): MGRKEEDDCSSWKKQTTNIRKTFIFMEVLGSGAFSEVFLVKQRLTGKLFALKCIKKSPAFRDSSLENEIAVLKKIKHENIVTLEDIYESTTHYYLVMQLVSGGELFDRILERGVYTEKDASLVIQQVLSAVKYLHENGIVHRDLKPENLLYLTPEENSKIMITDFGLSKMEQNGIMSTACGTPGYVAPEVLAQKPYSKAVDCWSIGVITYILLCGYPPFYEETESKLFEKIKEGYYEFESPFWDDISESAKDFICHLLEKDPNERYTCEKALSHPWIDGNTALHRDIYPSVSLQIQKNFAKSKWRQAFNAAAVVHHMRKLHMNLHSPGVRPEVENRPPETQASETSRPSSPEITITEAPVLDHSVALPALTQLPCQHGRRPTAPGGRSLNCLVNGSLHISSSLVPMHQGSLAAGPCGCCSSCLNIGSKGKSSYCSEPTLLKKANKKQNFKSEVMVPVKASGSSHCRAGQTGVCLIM
T1 sequence (O43293 whole entry): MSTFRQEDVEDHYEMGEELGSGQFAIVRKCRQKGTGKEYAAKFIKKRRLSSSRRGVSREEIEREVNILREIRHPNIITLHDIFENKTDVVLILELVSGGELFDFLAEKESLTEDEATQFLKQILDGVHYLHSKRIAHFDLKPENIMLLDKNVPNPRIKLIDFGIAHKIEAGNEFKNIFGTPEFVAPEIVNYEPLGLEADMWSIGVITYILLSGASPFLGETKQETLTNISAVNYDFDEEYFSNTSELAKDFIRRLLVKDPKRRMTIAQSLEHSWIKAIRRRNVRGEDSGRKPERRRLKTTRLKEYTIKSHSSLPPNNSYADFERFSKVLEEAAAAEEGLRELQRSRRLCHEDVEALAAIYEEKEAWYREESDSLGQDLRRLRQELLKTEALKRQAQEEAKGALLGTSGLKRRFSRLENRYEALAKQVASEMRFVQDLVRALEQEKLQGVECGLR
T9 sequence (Q15208 whole entry): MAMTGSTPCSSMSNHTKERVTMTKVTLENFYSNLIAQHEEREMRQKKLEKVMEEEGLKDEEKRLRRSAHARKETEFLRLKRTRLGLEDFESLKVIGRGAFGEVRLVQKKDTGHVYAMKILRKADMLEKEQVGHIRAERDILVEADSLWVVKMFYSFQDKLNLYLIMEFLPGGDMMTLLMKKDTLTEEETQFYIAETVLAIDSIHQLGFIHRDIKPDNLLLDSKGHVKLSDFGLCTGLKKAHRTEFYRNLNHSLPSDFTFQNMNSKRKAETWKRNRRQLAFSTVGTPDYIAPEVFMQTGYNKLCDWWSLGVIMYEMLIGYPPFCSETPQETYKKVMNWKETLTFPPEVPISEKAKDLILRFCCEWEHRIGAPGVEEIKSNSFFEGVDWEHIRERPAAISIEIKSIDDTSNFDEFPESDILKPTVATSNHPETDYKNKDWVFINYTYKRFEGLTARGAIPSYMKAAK
T8 sequence (Q13882 whole entry): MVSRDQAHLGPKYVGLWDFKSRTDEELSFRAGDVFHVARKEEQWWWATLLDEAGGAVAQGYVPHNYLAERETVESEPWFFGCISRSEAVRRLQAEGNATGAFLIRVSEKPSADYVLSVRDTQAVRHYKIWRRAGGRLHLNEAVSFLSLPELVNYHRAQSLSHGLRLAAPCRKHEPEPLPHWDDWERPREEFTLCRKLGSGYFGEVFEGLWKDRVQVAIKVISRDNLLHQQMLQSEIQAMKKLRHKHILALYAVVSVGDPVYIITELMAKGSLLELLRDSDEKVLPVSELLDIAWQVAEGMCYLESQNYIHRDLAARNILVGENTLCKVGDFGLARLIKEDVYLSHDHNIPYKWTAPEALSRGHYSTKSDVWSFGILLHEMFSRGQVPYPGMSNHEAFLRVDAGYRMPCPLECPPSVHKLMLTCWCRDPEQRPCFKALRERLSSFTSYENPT
T2 sequence (Q9H422 whole entry): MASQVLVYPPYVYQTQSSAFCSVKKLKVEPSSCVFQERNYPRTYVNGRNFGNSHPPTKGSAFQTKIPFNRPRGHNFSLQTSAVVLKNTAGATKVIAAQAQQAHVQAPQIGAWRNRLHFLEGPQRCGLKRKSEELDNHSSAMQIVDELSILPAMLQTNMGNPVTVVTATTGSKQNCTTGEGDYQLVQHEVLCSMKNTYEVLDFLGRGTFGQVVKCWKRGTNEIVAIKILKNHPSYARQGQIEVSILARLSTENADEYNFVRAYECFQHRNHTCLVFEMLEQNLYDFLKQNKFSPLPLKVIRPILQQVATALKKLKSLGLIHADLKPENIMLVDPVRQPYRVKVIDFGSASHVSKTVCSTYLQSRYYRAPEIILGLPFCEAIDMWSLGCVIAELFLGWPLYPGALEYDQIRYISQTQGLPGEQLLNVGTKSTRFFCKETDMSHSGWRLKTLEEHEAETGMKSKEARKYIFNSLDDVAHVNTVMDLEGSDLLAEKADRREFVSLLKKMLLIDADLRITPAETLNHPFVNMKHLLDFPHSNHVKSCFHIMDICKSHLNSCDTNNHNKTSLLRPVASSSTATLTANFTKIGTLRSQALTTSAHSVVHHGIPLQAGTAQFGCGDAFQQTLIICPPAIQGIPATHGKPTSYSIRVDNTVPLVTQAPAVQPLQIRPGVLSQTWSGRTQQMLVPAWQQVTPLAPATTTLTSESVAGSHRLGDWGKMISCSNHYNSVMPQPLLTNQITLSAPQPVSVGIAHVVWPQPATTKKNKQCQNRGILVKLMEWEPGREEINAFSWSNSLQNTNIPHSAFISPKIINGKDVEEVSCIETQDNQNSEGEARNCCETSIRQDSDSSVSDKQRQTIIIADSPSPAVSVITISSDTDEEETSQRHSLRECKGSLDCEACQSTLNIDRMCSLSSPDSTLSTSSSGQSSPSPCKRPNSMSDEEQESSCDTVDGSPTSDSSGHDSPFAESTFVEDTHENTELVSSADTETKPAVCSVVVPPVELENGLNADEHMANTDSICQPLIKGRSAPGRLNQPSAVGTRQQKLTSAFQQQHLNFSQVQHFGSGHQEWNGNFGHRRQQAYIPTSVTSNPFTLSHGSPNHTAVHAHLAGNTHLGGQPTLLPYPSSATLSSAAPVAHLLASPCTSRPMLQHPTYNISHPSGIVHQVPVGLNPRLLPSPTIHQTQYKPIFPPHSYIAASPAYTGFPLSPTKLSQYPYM
T5 sequence (O60674 whole entry): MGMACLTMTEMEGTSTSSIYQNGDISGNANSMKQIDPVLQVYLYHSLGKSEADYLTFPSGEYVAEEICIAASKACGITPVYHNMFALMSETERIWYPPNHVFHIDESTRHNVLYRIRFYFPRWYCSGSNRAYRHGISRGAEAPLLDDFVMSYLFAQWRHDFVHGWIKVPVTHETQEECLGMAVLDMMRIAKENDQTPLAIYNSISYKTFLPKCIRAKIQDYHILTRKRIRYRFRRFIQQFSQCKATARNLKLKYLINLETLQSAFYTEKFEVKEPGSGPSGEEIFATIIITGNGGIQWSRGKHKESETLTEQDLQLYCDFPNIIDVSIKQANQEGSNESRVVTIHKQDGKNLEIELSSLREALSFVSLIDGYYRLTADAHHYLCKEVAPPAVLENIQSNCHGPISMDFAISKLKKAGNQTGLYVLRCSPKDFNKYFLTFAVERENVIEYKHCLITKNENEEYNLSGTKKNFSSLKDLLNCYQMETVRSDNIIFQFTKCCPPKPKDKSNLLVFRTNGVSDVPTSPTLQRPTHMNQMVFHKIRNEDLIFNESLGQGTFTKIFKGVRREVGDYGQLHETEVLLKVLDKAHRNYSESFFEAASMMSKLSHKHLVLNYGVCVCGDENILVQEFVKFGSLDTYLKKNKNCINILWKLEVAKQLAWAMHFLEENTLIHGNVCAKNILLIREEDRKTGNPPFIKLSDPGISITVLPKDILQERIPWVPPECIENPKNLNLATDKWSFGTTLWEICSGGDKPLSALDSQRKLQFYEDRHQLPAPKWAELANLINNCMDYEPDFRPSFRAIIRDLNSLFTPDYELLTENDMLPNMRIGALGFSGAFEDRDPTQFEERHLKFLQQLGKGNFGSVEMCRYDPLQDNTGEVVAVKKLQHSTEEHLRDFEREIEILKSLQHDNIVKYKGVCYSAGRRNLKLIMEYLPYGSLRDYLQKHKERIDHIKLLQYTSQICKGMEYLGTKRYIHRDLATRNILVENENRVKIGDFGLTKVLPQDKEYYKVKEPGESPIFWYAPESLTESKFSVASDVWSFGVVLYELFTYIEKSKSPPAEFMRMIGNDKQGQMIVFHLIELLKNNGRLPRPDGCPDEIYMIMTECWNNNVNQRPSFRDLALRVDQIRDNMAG

CC(C)(C)C(=O)N1N=CC[C@H]1c1ccccc1 [GSK′963]
remaining activity at 10 µM [1, 10]: 111% | remaining activity at 10 µM [1, 11]: 118% | remaining activity at 10 µM [1, 12]: 104% | remaining activity at 10 µM [2, 10]: 100% | remaining activity at 10 µM [2, 11]: 100% | remaining activity at 10 µM [2, 12]: 101% | remaining activity at 10 µM [3, 10]: 131% | remaining activity at 10 µM [3, 11]: 129% | remaining activity at 10 µM [3, 12]: 133% | remaining activity at 10 µM [4, 10]: 82.4% | remaining activity at 10 µM [4, 11]: 81.8% | remaining activity at 10 µM [4, 12]: 83% | remaining activity at 10 µM [5, 10]: 105% | remaining activity at 10 µM [5, 11]: 105% | remaining activity at 10 µM [5, 12]: 105% | remaining activity at 10 µM [6, 10]: 93% | remaining activity at 10 µM [6, 11]: 91.5% | remaining activity at 10 µM [6, 12]: 94.5% | remaining activity at 10 µM [7, 10]: 105% | remaining activity at 10 µM [7, 11]: 98.2% | remaining activity at 10 µM [7, 12]: 112% | remaining activity at 10 µM [8, 10]: 93.2% | remaining activity at 10 µM [8, 11]: 96.2% | remaining activity at 10 µM [8, 12]: 90.2% | remaining activity at 10 µM [9, 10]: 102% | remaining activity at 10 µM [9, 11]: 100% | remaining activity at 10 µM [9, 12]: 104%
